PMC10538209, “Ginsentide-like Coffeetides Isolated from Coffee Waste Are Cell-Penetrating and Metal-Binding Microproteins” (Molecules, 2023)
Positions of bridges follow the written chain, without caps; N, C: chain ends. Non-standard residues stand in square brackets, D forms with d. Residues, ends and D or L forms follow the SMILES beside them. pGlu = O=C1CC[C@@H](C(=O)O)N1

Assays:
[1] = Thermal stability assay; assay type: physicochemical; conditions: native cC1a 200 µM; high heat (95 °C in text; 100 °C water bath in legend and method), 2 h; quenched in ice bath; RP-UHPLC quantification; triplicate
Protocol: (§1) Figure 6 Stability assays of coffeetide cC1a. An amount of 200 µM coffeetide cC1a was subjected to (A) heat at 100 °C for 2 h, (B) acidic conditions in 1 M HCl (pH 2.0) for 2 h, (C) pepsin in 100 mM sodium citrate buffer (pH 2.5) for 6 h, (D) aminopeptidase I in 20 mM tricine for 6 h, and (E) human serum for 36 h. MALDI-TOF MS was used to characterize coffeetide cC1a and reversed-phase ultra-high pressure liquid chromatography was used to quantify cC1a in the treated samples to calculate the percentage of cC1a remaining intact.
(§2) Thermal and acidic stability: A solution of purified 200 µM coffeetide cC1a was subjected to rigorous conditions, including incubation at 100 °C in a water bath and exposure to 2 M hydrochloric acid for 2 h. The reactions were promptly quenched, either by placing the samples in an ice bath for 10 min or by adding 1 M sodium hydroxide at various time intervals (0, 30, 60, 90, 120 min). Subsequently, the treated samples were injected into RP-UHPLC to evaluate the presence of coffeetide cC1a and quantify any degradation. Each experiment was conducted in triplicate, and MALDI-TOF MS was employed to analyze the collected peaks.

[2] = Acidic stability assay; assay type: physicochemical; conditions: native cC1a 200 µM; acidic conditions (pH 2), 1 M HCl in legend, 2 M HCl in method, 2 h; quenched with 1 M NaOH; RP-UHPLC; triplicate
Protocol: as §1, §2

[3] = system: T1, pepsin; test: Proteolytic stability, pepsin; assay type: in vitro ADME; conditions: native cC1a 200 µM, 4 mg/mL pepsin in 100 mM sodium citrate buffer pH 2.5, 37 °C, RP-UHPLC, read-out: coffeetide remained intact with pepsin
T1 construct: purchased Sigma Aldrich or Fisher Scientific (general statement only)
Protocol: as §1
(§3) Proteolytic stability: In this test, purified 200 µM coffeetide cC1a was exposed to 37 °C for 6 h in the presence of 4 mg/mL of pepsin in a 100 mM sodium citrate buffer (pH 2.5) or 20 U/mL of aminopeptidase I in 20 mM tricine and 0.05% bovine serum albumin (pH 8.0). The peptide-to-enzyme ratio (w/w) was maintained at either 20:1 or 50:1. At specific time intervals (0, 2, 4, and 6 h), 20 µL of each sample was injected into RP-UHPLC to monitor degradation.

[4] = system: T2, aminopeptidase I; test: Proteolytic stability, aminopeptidase I; assay type: in vitro ADME; conditions: native cC1a 200 µM, 20 U/mL aminopeptidase I in 20 mM tricine, 0.05% BSA, pH 8.0, 37 °C, RP-UHPLC, read-out: coffeetide remained intact with aminopeptidase
T2 construct: purchased Sigma Aldrich or Fisher Scientific (general statement only)
Protocol: as §1, §3

[5] = Human serum-mediated stability; assay type: in vitro ADME; conditions: 25% human serum (AB-type) in DMEM, native cC1a, 25% human male serum (AB-type) in phenol red-free DMEM, 37 °C, ethanol precipitation, RP-UHPLC, read-out: coffeetide remained after treatment with human serum
Protocol: as §1
Human serum-mediated stability: To assess stability in a biologically relevant context, purified 200 µg coffeetide cC1a was incubated with 25% human male serum (AB-type) in phenol red-free Dulbecco’s Modified Eagle Medium (DMEM) at 37 °C for 48 h. At defined time points (0 h, 12 h, 24 h, and 48 h), 50 µL of the samples were collected and treated with 100 µL of 95% ethanol to precipitate serum proteins. After incubation at 4 °C for 15 min and centrifugation at 13,000 rpm for 10 min, the extent of degradation was evaluated through RP-UHPLC chromatograms.

[6] = system: HeLa cells; test: MTT toxicity assay, HeLa; assay type: cell-based, human; conditions: 24 h treatment, concentrations up to 100 µM, MTT absorbance 550 nm, mean ± S.E.M. n = 3
Protocol: (§4) HeLa cells (human cervical cancer cells) and HUVEC-CS (human umbilical vein endothelial cells) were cultured in DMEM (Dulbecco’s Modified Eagle Medium) from Thermo Scientific, supplemented with 10% fetal bovine serum, 100 U/mL of penicillin, and streptomycin. Cell cultures were maintained in a 5% CO2 incubator at 37 °C.
(§5) To evaluate cell viability, a 3-(4,5-dimethylthiazolyl-2)-2,5-diphenyltetrazolium bromide (MTT) dye reduction assay was employed. In brief, HeLa and HUVEC-CS cells were subjected to treatment with either coffeetide cC1a or 0.1% Triton X-100 (utilized as a positive control) for a duration of 24 h. Following the incubation period, MTT was introduced to the cells to achieve a final concentration of 0.5 mg/mL and incubated for 3 h at 37 °C. The resulting insoluble formazan crystals were subsequently dissolved by the addition of dimethyl sulfoxide, and absorbance was measured at 550 nm using a microplate reader (Tecan Infinite® 200 Pro, Switzerland).

[7] = system: HUVEC-CS cells; test: MTT toxicity assay, HUVEC-CS; assay type: cell-based, human; conditions: 24 h treatment, concentrations up to 100 µM, MTT absorbance 550 nm, mean ± S.E.M. n = 3
Protocol: as §4, §5

[8] = Isothermal titration calorimetry (ITC), Mg2+; conditions: 10 mM Tris, 100 mM NaCl, pH 6.3, 20 °C in text (298 K in method), synthetic cC1a, read-out: binding affinity (KD) to Mg^2+
Protocol: (§6) Isothermal Titration Calorimetry (ITC) experiments were conducted at 298 K using the MicroCal PEAQ ITC system from Malvern Instruments Ltd., Malvern, UK. MgCl2, KCl, CaCl2, and FeCl3 were dissolved in a 10 mM Tris buffer containing 100 mM NaCl at a pH of 6.3. Similarly, coffeetide cC1a was prepared in the same buffer. In the initial set of experiments, 200 µM of these ions were incrementally titrated into cC1a, involving twenty 2.5 µL injections, while simultaneously measuring the heat changes. Additional experiments were conducted with higher concentrations of KCl, MgCl2, and FeCl3 interacting with cC1a. Specifically, 400 µM of KCl, MgCl2, and FeCl3 were titrated into a solution containing 40 µM of cC1a, utilizing twenty 2.5 µL injections, and monitoring the associated heat changes. Control experiments were conducted by titrating ions into a 10 mM Tris (pH 6.3) buffer containing 100 mM NaCl to account for heat changes resulting from dilution. The obtained titration curves were analyzed using MicroCal PEAQ-ITC analytics software (version 1.0.0.1259, Malvern Instruments Ltd.).

[9] = Isothermal titration calorimetry (ITC), Fe3+; conditions: 10 mM Tris, 100 mM NaCl, pH 6.3, 20 °C in text (298 K in method), synthetic cC1a, read-out: binding affinity (KD) to Fe^3+
Protocol: as §6

[10] = Isothermal titration calorimetry (ITC), Ca2+; assay type: binding; conditions: 200 µM metal ion titrated into cC1a, 10 mM Tris, 100 mM NaCl, pH 6.3
Protocol: as §6

[11] = Isothermal titration calorimetry (ITC), K+; assay type: binding; conditions: 200 µM (also 400 µM) metal ion titrated into cC1a, 10 mM Tris, 100 mM NaCl, pH 6.3
Protocol: as §6

Compound: CC[C@H](C)[C@@H]1NC(=O)[C@@H]2CSSC[C@@H]3NC(=O)[C@@H]4CCCN4C(=O)[C@H](CCC(=O)O)NC(=O)CNC(=O)[C@H](CC(C)C)NC(=O)[C@@H]4CCCN4C(=O)[C@H](CO)NC(=O)[C@@H](NC(=O)[C@H](CCC(=O)O)NC(=O)CNC(=O)[C@H](CCC(=O)O)NC(=O)[C@@H]4CCC(=O)N4)CSSC[C@@H]4NC(=O)[C@H](CSSC[C@H](NC(=O)[C@H](CCCNC(=N)N)NC(=O)[C@H](CC(=O)O)NC(=O)[C@H]([C@@H](C)O)NC(=O)[C@H](CC(C)C)NC(=O)[C@H](CCC(N)=O)NC(=O)[C@H](Cc5c[nH]c6ccccc56)NC1=O)C(=O)N[C@@H](C(C)C)C(=O)NCC(=O)N[C@@H](CC(N)=O)C(=O)N[C@H](C(=O)O)CSSC[C@H](NC(=O)CNC(=O)[C@@H]1CCCN1C4=O)C(=O)N[C@@H]([C@@H](C)CC)C(=O)N2)NC(=O)CNC(=O)[C@H](Cc1c[nH]c2ccccc12)NC(=O)[C@@H]1CCCN1C(=O)[C@H](CC(N)=O)NC(=O)CNC(=O)[C@H](C)NC3=O [cC1a] ([pGlu]EGECSPLGEPCAGNPWGCCPGCICIWQLTDRCVGNC-OH; disulfide 5-20, 12-25, 19-33, 23-37)
- coffeetide remained intact under high heat [1]: > 88%
- coffeetide remained intact under acidic conditions [2]: > 88%
- remaining at 6 h, 200 µM [3]: > 90%
- remaining at 6 h, 200 µM [4]: > 90%
- remaining at 36 h, 200 µM [5]: > 85%
- cytotoxicity (MTT cell viability) [6]: not cytotoxic
- cytotoxicity (MTT cell viability) [7]: not cytotoxic
- Kd [8]: 4190 ± 4790 nM
- Kd [9]: 1670 ± 1800 nM
- binding affinity to Ca^2+ [10]: does not display reproducible binding affinity
- binding affinity to K^+ [11]: does not display reproducible binding affinity
